Test results taken from publication PMC8018184, “Evaluation of the Pharmacophoric Role of the O–O Bond in Synthetic Antileishmanial Compounds: Comparison between 1,2-Dioxanes and Tetrahydropyrans” (Journal of Medicinal Chemistry, 2020).
Where “and” joins values, the source holds several entries; their conditions need not be identical. Equal entries are not always repeated.

Columns and labels:
[1] = test system: amastigotes of L. donovani; set-up: method as in PMID 30908481; settings: cited from earlier work
[2] = test system: promastigotes of L. donovani; set-up: method as in PMID 30878827; settings: in vitro; cited from earlier work
[3] = test system: L. donovani promastigotes (MHOM/NP/02/BPK282/0cl4); experiment: Promastigote growth inhibition assay (alamarBlue); assay type: cell-based, Leishmania donovani; settings: for IC50: Leishmania donovani, 72 h, alamarBlue, HOMEM 20% FBS, compounds as racemates, read-out: IC50 (concentration causing 50% growth inhibition) against promastigotes of L. donovani
Procedure: The bioactivity of the new tetrahydropyrans 3 was initially evaluated against the extracellular promastigote forms of L. donovani (MHOM/NP/02/BPK282/0cl4) as the reference strain, indicative of the leishmaniasis in the Old World. The results were expressed as IC50, i.e., the concentration of the product required to inhibit the parasite growth by 50%. When a compound could inhibit the promastigote growth, its cytotoxicity was also evaluated on Vero cells (Table 1) and on THP-1 cells (see the Supporting Information, Table S3) and the corresponding selectivity indexes (SIs) were calculated. The performance of each tetrahydropyran 3 was compared with that of the corresponding endoperoxide 2 (Table 1).
Promastigotes of a L. donovani reference strain (MHOM/NP/02/BPK282/0cl4) were maintained at 26 °C in a liquid custom-made medium, HOMEM Cat. no: 1140-082 (Gibco Thermo Fisher Scientific Inc., Waltham, USA), complete composition: S-MEM (Eagle) 1 × 1 liter pack, glucose (1–2 g), sodium bicarbonate (0.3 g), sodium pyruvate (0.11 g), p-aminobenzoic acid (1 mg), biotin (0.1 mg), HEPES (4.77–5.96 g), MEM amino acids (10 mL), MEM nonessential amino acids (10 mL), pH 7.5–7.6, supplemented with 20% fetal bovine serum (FBS, EuroClone SpA, Milan, Italy)[123] and 1% penicillin–streptomycin (EuroClone SpA).
To evaluate the efficacy of the compounds on the extracellular forms of L. donovani, promastigotes in their late log/stationary phase were seeded with the complete HOMEM medium at 10^6 cells mL^–1 in 96-well plates and incubated with tested compounds at a range concentration of 600–1.6 μM in a 26 °C incubator for 72 h. The antileishmanial drug amphotericin B was used as the positive control, and untreated promastigotes were the negative control. Each experiment was performed in duplicate. Stock solution of the compounds was 8 mM in DMSO. […] The alamarBlue assay includes a colorimetric growth indicator based on detection of metabolic activity. Specifically, the system incorporates an oxidation–reduction (REDOX) indicator that changes color in response to chemical reduction of the growth medium resulting from cell growth. The method monitors the reducing environment of proliferating cells; the cell-permeable resazurin is added (nonfluorescent form, blue color) and, upon entering cells, is reduced to resorufin (fluorescent form, red color) as a result of cellular metabolic activity. Evaluation was performed by adding 20 μL of alamarBlue and incubating at 26 °C for 24 h. The reducing environment was evaluated after 24 h by absorbance measurement at the Multiskan ascent plate reader (Thermo Fisher Scientific Inc.) at 550 and 630 nm.

[4] = Cytotoxicity test on Vero cells (alamarBlue); assay type: cell-based, African green monkey; settings: African green monkey
Procedure: Vero cells (kidney of African green monkey epithelial cell line) were cultured at 37 °C in the MEM liquid medium supplemented with 10% FBS (EuroClone SpA), 1% levoglutamine (EuroClone SpA), and 1% penicillin–streptomycin (EuroClone SpA). THP-1 cells (human leukemia monocytic cell line) were cultured at 37 °C in the RPMI 1640 (EuroClone SpA) liquid medium supplemented with 10% FBS (EuroClone SpA), 1% levoglutamine (EuroClone SpA), 1% penicillin–streptomycin, and mercaptoethanol (Gibco) 50 μM.
The cytotoxicity of the compounds was determined using mammalian kidney epithelial cells (Vero cell line) and human acute monocytic leukemia cell line (THP-1). Cells were seeded (10^5 cells mL^–1) on 96-well plates with the complete MEM medium and incubated with test compounds at 37 °C in a 5% CO2 incubator. After 72 h of incubation, 20 μL of the alamarBlue reagent was added to each well and incubated at 37 °C for 24 h. Reduction of resazurin to resorufin was evaluated after 24 h by absorbance measurement at the Multiskan ascent plate reader (Thermo Fisher Scientific Inc.,) at 550 and 630 nm. […] Each experiment was performed in duplicate.

[5] = test system: intramacrophage amastigotes of L. donovani; experiment: Amastigote growth inhibition assay in infected THP-1 cells (Giemsa, infectivity index); assay type: cell-based, Leishmania donovani; settings: for IC50: Leishmania donovani, intracellular amastigotes in THP-1, 72 h, read-out: IC50 against amastigotes of L. donovani
Procedure: To evaluate the efficacy of the compounds on the intracellular form of L. donovani, human acute monocytic leukemia cell line (THP-1) was infected with L. donovani promastigotes. Cells were harvested and seeded in a 96-well plate (10^5 cells mL^–1) in the complete RPMI 1640 medium, and PMA (0.1 μM, Cayman Chemical Company, Ann Arbor, Michigan, USA) was added for obtaining maturation and cell adherence. Cells were incubated at 37 °C in a 5% CO2 incubator. After 48 h, the medium was replaced with the fresh medium containing stationary-phase promastigotes that were then phagocyted by monocytic cells and transformed into intracellular amastigotes. After 24 h of incubation, newly synthesized compounds were added and the plates were incubated at 37 °C in a 5% CO2 incubator for 72 h. After incubation, wells were washed, fixed, and stained with Giemsa. Staining was detected using a Nikon Eclipse E200 light microscope (Nikon, Tokyo, Japan). The infectivity index (% of infected macrophages × average number of amastigotes per macrophage) was determined by counting at least 100 cells in duplicate cultures.

[6] = test system: promastigotes of Leishmania donovani strains; set-up: method as in earlier work; settings: Figure 1, cited from earlier work; for IC50: read-out: IC50 on promastigotes of L. donovani strains
Leishmania promastigotes = test system: Leishmania promastigotes; set-up: method as in PMID 27867026, PMID 17339374; settings: Figure 3; cited from earlier work
[7] = test system: intracellular amastigotes of L. infantum; set-up: method as in PMID 26014947; settings: in vitro; cited from earlier work
[8] = test system: promastigotes of L. infantum; set-up: method as in PMID 26014947; settings: in vitro; cited from earlier work

In the case of “6-(1,2,6,7-tetraoxaspiro[7.11]nonadec-4-yl) hexan-1-ol [N-251]”, the IC50 [1] is listed as 6.7 µM.
For `CCCCC1(CCCC)CC(CNCCCn2ccnc2)C(C)(OC)OO1` (stereo not drawn) [3,4-cis 2a], the IC50 [2] is listed as 5.5 µM.
For `CCCCC1(CCCC)CC(CNCCCn2ccnc2)C(C)(OC)OO1` (stereo not drawn) [3,4-trans 2a], the IC50 [2] is given as 4 µM.
With `C[C@@H]1[C@H](O)[C@@H](C)/C=C/C=C/C=C/C=C/C=C/C=C/C=C/[C@H](O[C@@H]2O[C@H](C)[C@@H](O)[C@H](N)[C@@H]2O)C[C@@H]2O[C@](O)(C[C@@H](O)C[C@@H](O)[C@H](O)CC[C@@H](O)C[C@@H](O)CC(=O)O[C@H]1C)C[C@H](O)[C@H]2C(=O)O` [Amphotericin B, reference compound] the IC50 [3] was 0.3 µM, the “Selectivity index (SI) = CC50/IC50” value ([3]; Vero CC50 / IC50 on promastigotes) was 666.7 and the CC50 at 72 h [4] was 200 µM. For the same molecule, the IC50 [5] was 0.07 µM, the “Selectivity index (SI) = CC50/IC50” value ([5]; Vero CC50 / IC50 on amastigotes) was 2857.1 and the IC50 [6] was 0.03 to 2.8 µM.
For `C[C@@H]1CC[C@H]2[C@@H](C)C(=O)O[C@@H]3O[C@@]4(C)CC[C@@H]1[C@]32OO4` [Artemisinin, reference compound], the IC50 [3] is listed as greater than 40 µM, the IC50 [5] is listed as greater than 40 µM and the IC50 (Leishmania promastigotes) is listed as 30.8 µM.
For `COc1ccc(N[C@@]2(C(F)(F)F)O[C@@H]3C[C@@]4(C)C[C@H]5[C@H](C)CC[C@@H]([C@H]2C)[C@@]35OO4)cc1` [BB201], the IC50 (Leishmania promastigotes) is given as 0.38 to 1.5 µM.
For `C=CCO[C@@]1(C(F)(F)F)O[C@@H]2C[C@@]3(C)C[C@H]4[C@H](C)CC[C@@H]([C@H]1C)[C@@]24OO3` [BB241], the IC50 (Leishmania promastigotes) is given as 1.6 to 6.3 µM.
For `O=C1CCC2(CC1)OOC1(O2)C2CC3CC(C2)CC1C3` (stereo not shown) [LC50], the IC50 [7] is listed as 79.8 to 108 µM.
In the case of `NCC1CC[C@]2(CC1)OO[C@]1(O2)C2CC3CC(C2)CC1C3` (stereo partly shown) [LC95], the IC50 [8] is listed as 3.5 µM and 3.5 to 9.4 µM and the IC50 [7] is listed as 79.8 to 108 µM.
In the case of `NC[C@@H]1O[C@H](O[C@H]2[C@@H](O)[C@H](O[C@@H]3[C@@H](O)[C@H](N)C[C@H](N)[C@H]3O[C@H]3O[C@H](CO)[C@@H](O)[C@H](O)[C@H]3N)O[C@@H]2CO)[C@H](N)[C@@H](O)[C@@H]1O` [Paromomycin], the IC50 [6] is listed as 19.7 to 28.1 µM.
In the case of `O.O.O.O.O.O.O.O.O.O=C([O-])[C@@H]1[O][Sb](=[O])([O][Sb]2(=[O])[O][C@H]([C@H](O)CO)[C@H](O)[C@H](C(=O)[O-])[O]2)[O][C@H]([C@H](O)CO)[C@@H]1O.[Na+].[Na+].[Na+]` (stereo partly shown) [Sodium stibogluconate], the “IC50 on promastigotes of L. donovani strains” value [6] is listed as 8.8 to 22.0 µg/mL.
